Laboratory results from patent US20080305186A1, “Method and Composition for the Treatment of Cardiac Hypertrophy” (BOARD OF REGENTS, THE UNIVERSITY OF TEXAS SYSTEM, priority 2007, published 2008).

Tested on: cardiac gene expression
Test: Microarray analysis of cardiac gene expression (GeneChip Mouse Genome 430 2.0)
Assay type: in vivo, mice
Experimental: Microarray Sample Preparation and Analysis. Animal hearts were rapidly removed, and the atria and right ventricles were cut and immediately plunged into TRIzol Reagent (Life Technologies). Total RNA was isolated following the manufacturer's instructions, purified by phenol-chloroform extraction and then ethanol precipitation, and 20 μg further processed for microarray analysis. Briefly, cDNA synthesis, in vitro transcription, and labeling and fragmentation to produce the oligonucleotide probes were performed as instructed by the GeneChip manufacturer (Affymetrix). The probes were first hybridized to a test array (Affymetrix) and then to the GeneChip Mouse Genome 430 2.0 Array, using the GeneChip Hybridization Oven 640. The chips were washed in a GeneChip Fluidics Station 450 (Affymetrix), and the results were visualized with a GeneChip G7 scanner (Affymetrix). RMA normalization, pairwise comparisons, Student's t test and Benjamini and Hochberg correction were subsequently performed using GeneSifter (VizX Labs, Seattle, Wash.) and Spotfire DecisionSite 8.3 (Spotfire, Inc., Somerville, Mass.).
Effects on Gene Expression Profile. […] One mouse heart was used for each array, and was performed in triplicate, generating a total of 12 arrays. GeneSifter was used to perform RMA normalization, pairwise comparisons of averaged signal intensity values, and Student's t-test with Benjamini and Hochberg correction, and Spotfire was used to perform pairwise comparisons. […] Additionally, genes that were altered between any two N or cardiac hypertrophy samples were removed, as these alterations most likely represented normal variations between mice.

[1] = mouse heart, vs isoproterenol only (CH), CH vs normal −1.7
[2] = mouse heart, vs isoproterenol only (CH), CH vs normal −1.8
[3] = mouse heart, vs isoproterenol only (CH), CH vs normal −1.9
[4] = mouse heart, vs isoproterenol only (CH), CH vs normal −2.0
[5] = mouse heart, vs isoproterenol only (CH), CH vs normal −2.1
[6] = mouse heart, vs isoproterenol only (CH), CH vs normal −2.4
[7] = mouse heart, vs isoproterenol only (CH), CH vs normal −2.5
[8] = mouse heart, vs isoproterenol only (CH), CH vs normal −2.6
[9] = mouse heart, vs isoproterenol only (CH), CH vs normal −2.7
[10] = mouse heart, vs isoproterenol only (CH), CH vs normal −2.8
[11] = mouse heart, vs isoproterenol only (CH), CH vs normal −2.9
[12] = mouse heart, vs isoproterenol only (CH), CH vs normal −3.0
[13] = mouse heart, vs isoproterenol only (CH), CH vs normal −3.2
[14] = mouse heart, vs isoproterenol only (CH), CH vs normal −3.3
[15] = mouse heart, vs isoproterenol only (CH), CH vs normal −3.9

C[C@H]1c2cccc(O)c2C(=O)C2=C(O)[C@]3(O)C(=O)C(C(N)=O)=C(O)[C@@H](N(C)C)[C@@H]3[C@@H](O)[C@@H]21 [doxycycline]
FC EphrinB3 (Efnb3), BQ175608 [1]: 1.6 fold | FC Nuclear factor IB (Nfib), BB092799 [1]: 4.0 fold | FC Preimplantation protein 4 (Prei4), BB550273 [1]: 3.6 fold | FC Triple futional domain (PTPRF interacting) (Trio), BB794936 [1]: 3.0 fold | FC cDNA, AK020162 [1]: 1.7 fold | FC ATPase, Na+/K+ transporting, alpha 1 polypeptide (Atp1a1), BC025618 (mouse heart, vs isoproterenol only (CH), CH vs normal −1.7, first BC025618 line): 2.4 fold | FC EST, BB126796 [2]: 6.5 fold | FC EST, BB451134 [2]: 7.5 fold | FC Metastasis suppressor 1 (Mtss1), BB326749 [2]: 2.0 fold | FC Tetratricopeptide repeat domain (Ttc3), BB833716 [2]: 3.0 fold | FC EST, BM941198 [3]: 3.2 fold | FC Jumonji, AT rich interactive domain 1A (Rbp2 like) (Jarid1a), BB376407 [3]: 2.6 fold | FC cDNA, BB006809 [3]: 2.1 fold | FC Guanine nucleotide binding protein, alpha 12 (Gna12), NM_010302 [4]: 3.0 fold | FC Zi finger and BTB domain containing 20 (Zbtb20), BB175650 [4]: 2.3 fold | FC cDNA, BC002200 [4]: 4.8 fold | FC ATPase, Na+/K+ transporting, alpha 1 polypeptide (Atp1a1), BC025618 (mouse heart, vs isoproterenol only (CH), CH vs normal −2.0, second BC025618 line): 2.7 fold | FC Adenylate kinase 4 (Ak4), NM_009647 [5]: 2.2 fold | FC Beta-tubulin gene M-beta-2 (Tubb2a), M28739 [5]: 1.7 fold | FC C1q and tumor necrosis factor related protein 4 (C1qtnf4), NM_026161 [5]: 1.5 fold | FC Cold inducible RNA binding protein (Cirbp), NM_007705 [5]: 1.7 fold | FC Coronin, actin binding protein 1C (Coro1c), NM_011779 [5]: 2.1 fold | FC Adrenergic receptor, alpha 1b (Adra1b), NM_007416 (mouse heart, vs isoproterenol only (CH), CH vs normal −2.3): 1.8 fold | FC CXXC finger 5 (Cxxc5), AK015150 [6]: 2.1 fold | FC DNA segment, Chr 9, ERATO Doi 256, expressed, BG066667 [6]: 3.3 fold | FC Insulin degrading enzyme (Ide), AK014703 [6]: 2.1 fold | FC Sno, strawbeny notch homolog 1 (Sno1), BE947961 [6]: 3.0 fold | FC cDNA, BB748887 [6]: 3.9 fold | FC B-cell translocation gene 2, anti-proliferative (Btg2), BG965405 [7]: 2.2 fold | FC cDNA, BC026793 [7]: 2.5 fold | FC Cbp/p300-interacting transactivator, with Glu/Asp-rich carboxy-terminal domain, 4 (Cited4), BC025116 [8]: 2.0 fold | FC Desmoglein 2 (Dsg2), AB072269 [8]: 3.0 fold | FC Heat shock protein, 84 kDa 1 (Hsp90ab1), BI154147 [8]: 8.7 fold | FC Myocyte enhaer factor 2C (Mef2c), AI595932 [8]: 4.5 fold | FC Restin-like 2 (Rsnl2), AK018895 [8]: 3.8 fold | FC Jumonji domain containing 3 (Jmjd3), AW763746 [9]: 5.0 fold | FC cDNA (similar to integrin beta 1 binding protein 3), AK009897 [9]: 4.0 fold | FC ADP-ribosylation factor 2 (Arf2), AV023312 [10]: 2.5 fold | FC Karyopherin (importin) beta 1 (Kpnb1), AW544889 [10]: 3.6 fold | FC PPAR gamma coactivator-1beta protein (Ppargc1b), NM_133249 [11]: 4.4 fold | FC SET and MYND domain containing 1 (Smyd1), NM_009762 [11]: 2.7 fold | FC cDNA, AK013448 [11]: 2.6 fold | FC Dual specificity phosphatase 8 (Dusp8), NM_008748 [12]: 2.8 fold | FC GATA binding protein 4 (Gata4), NM_008092 [12]: 2.7 fold | FC ATP synthase, H+ transporting, mitochondrial F1 complex, alpha subunit, isoform 1 (Atp5a1), C78762 (mouse heart, vs isoproterenol only (CH), CH vs normal −3.1): 1.7 fold | FC Actin, beta, cytoplasmic (Actb), AW537707 [13]: 4.9 fold | FC Methionine sulfoxide reductase B3 (Msrb3), BB277041 [13]: 7.2 fold | FC Cyclin D1 (Ccnd1), BB538325 [14]: 2.7 fold | FC Thymoma viral proto-oogene 1 (Akt1), M94335 [14]: 2.1 fold | FC cDNA, BB283973 [14]: 4.1 fold | FC cDNA, BB534971 (mouse heart, vs isoproterenol only (CH), CH vs normal −3.5): 2.9 fold | FC cDNA, BB026304 (mouse heart, vs isoproterenol only (CH), CH vs normal −3.8): 4.1 fold | FC Connexin 43 (alpha-1 gap jution) (Gja1), M63801 [15]: 3.6 fold | FC Kinesin-like protein (Kif1b), D17577 [15]: 4.8 fold | FC Kv channel-interacting protein 2a (Kcnip2), AF439339 (mouse heart, vs isoproterenol only (CH), CH vs normal −4.4): 3.7 fold | FC Potassium voltage-gated channel, Isk-related subfamily, member 1 (Kcne1), NM_008424 (mouse heart, vs isoproterenol only (CH), CH vs normal −4.6): 1.5 fold | FC Tumor rejection antigen gp96 (Tra1); heat shock protein 90 kDa beta (Grp94), member 1 (Hsp90b1), BE995678 (mouse heart, vs isoproterenol only (CH), CH vs normal −9.4): 8.0 fold | FC Cadherin 13 (Cdh13), AK016527 (mouse heart, vs isoproterenol only (CH), CH vs normal −10.0): 9.8 fold | FC cDNA (D site albumin promoter binding protein, Dbp), BB550183 (mouse heart, vs isoproterenol only (CH), CH vs normal −11.5): 12.0 fold | number of the 472 cardiac hypertrophy-specific Combo-altered genes also altered by the drug alone (statistical parameters lifted (average fold-changes irrespective of statistical measures)): 453
